Assay results from paper PMC4359082 (Nature, 2014).

How the values were obtained:
[1] = Drug preparation and storage: stability of solutions; type: physicochemical; conditions: solutions prepared on the day of the experiment
[2] = tested on: mouse peritoneal mast cells; assay: Mouse peritoneal mast cell histamine release assay; type: cell-based; conditions: 5 minutes, room temperature; HTRF histamine assay
MrgprB2 = target: T1, MrgprB2 (Mus musculus, UniProt Q3KNA1); assay: Calcium imaging in HEK293 cells expressing MrgprB2; type: cell-based; conditions: HEK293 cells heterologously expressing MrgprB2
T1 sequence (Q3KNA1 1-338): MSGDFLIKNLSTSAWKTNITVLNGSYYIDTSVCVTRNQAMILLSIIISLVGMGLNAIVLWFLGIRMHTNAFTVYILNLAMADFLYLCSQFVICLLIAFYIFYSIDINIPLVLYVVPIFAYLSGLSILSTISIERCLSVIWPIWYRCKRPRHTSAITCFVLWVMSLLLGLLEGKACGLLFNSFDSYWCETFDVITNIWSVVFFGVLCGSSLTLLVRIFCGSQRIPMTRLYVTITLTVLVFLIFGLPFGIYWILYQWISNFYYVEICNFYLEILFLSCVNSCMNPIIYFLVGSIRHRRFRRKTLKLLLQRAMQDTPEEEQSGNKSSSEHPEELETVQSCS

Molecule | stability of potency of drug solutions [1] | histamine release from WT peritoneal mast cells (MrgprB2MUT mast cells released substantially less) [2] | response of MrgprB2-HEK cells ([Ca2+]i) (MrgprB2)
COc1cc2c3cc1Oc1cc(ccc1O)C[C@@H]1c4c(cc(OC)c(O)c4Oc4ccc(cc4)C[C@@H]3N(C)CC2)CC[N+]1(C)C [tubocurarine] | susceptible to oxidation and/or freeze-thaw effects |  | 
icatibant |  | induced histamine release | 
CCN(CC)CCCC(C)Nc1ccnc2cc(Cl)ccc12 (stereo not shown) [CQ, chloroquine] |  |  | no response
COc1ccc(CC2c3cc(OC)c(OC)cc3CC[N+]2(C)CCC(=O)OCCCCCOC(=O)CC[N+]2(C)CCc3cc(OC)c(OC)cc3C2Cc2ccc(OC)c(OC)c2)cc1OC (stereo not shown) [Atracurium, atracurium] | susceptible to oxidation and/or freeze-thaw effects | induced histamine release | 
COc1cc2c(cc1OC)[C@@H](Cc1cc(OC)c(OC)c(OC)c1)[N+](C)(CCCOC(=O)CC/C=C/CCC(=O)OCCC[N+]1(C)CCc3cc(OC)c(OC)cc3[C@H]1Cc1cc(OC)c(OC)c(OC)c1)CC2 (stereo partly shown) [mivacurium] | susceptible to oxidation and/or freeze-thaw effects |  | 
O=C(O)c1cn(C2CC2)c2cc(N3CCNCC3)c(F)cc2c1=O [Ciprofloxacin, ciprofloxacin] |  | induced histamine release | 
